This note sets out measurements from patent US20150366252A1, “SWEETENER ENHANCERS AND METHODS FOR USING THE SAME” (International Flavors & Fragrances Inc., priority 2014, published 2015).

Structures are written as SMILES.

In this assay the test system is human panelists (sweet taste of glucose). Kind of assay: Glucose enhancement test: paired-comparison human panelist taste test. The class given is in vivo. To be noted: for glucose concentration perceived by panelists as equally sweet (as sweet as): composition of 7% glucose + 8 ppm compound; for glucose enhancement effects (overall statement): human panelist taste test, 7% glucose + 8 ppm compound. The method, then: Compounds 1-3 were tested for glucose sweetness enhancement by human panelist taste tests. Test samples containing the compound of interest were tasted in pairs by the panelist to determine which of the samples were sweeter. Binominal distribution for two-sided pair comparisons were used to determine the probability of the correct number of responses at α=0.05 (95% confidence level).

[1] abbreviates: 7% glucose + 8 ppm compound vs 8.5% glucose.
The mark [2] stands for this setting: 7% glucose + 8 ppm compound vs 8.5% glucose, 12 panelists × 2 reps.

For the molecule `NC1=NS(=O)(=O)Nc2cccc(OCC3(C(=O)NC4CCCC4)CCCNC3=O)c21` (stereo not shown) [Compound 1, 3-(((4-Amino-2,2-dioxido-1H-benzo[c][1,2,6]thiadiazin-5-yl)oxy)methyl)-N-cyclopentyl-2-oxopiperidine-3-carboxamide], the “glucose concentration perceived by panelists as equally sweet (as sweet as)” value (from here on “glucose concentration perceived”) is on record as 10 % glucose. Under setting [1], the “sweetness perceived by panelists relative to 8.5% glucose” value is on record as “significantly sweeter”. Under “7% glucose + 8 ppm compound vs 9.5% glucose, paired comparison”, the “Total (sample selected as sweeter by panelists)” value worked out at 17. The “Total (sample selected as sweeter by panelists)” value (7% glucose + 8 ppm compound vs 10% glucose, paired comparison) is listed as 11. The “Total (sample selected as sweeter by panelists)” value (7% glucose + 8 ppm compound vs 10.5% glucose, paired comparison) was found to be 6.
Take `CC(C)NC(=O)C1(COc2cccc3c2C(N)=NS(=O)(=O)N3)CCCNC1=O` (stereo not shown) [Compound 2, 3-(((4-amino-2,2-dioxido-1H-benzo-[c][1,2,6]thiadiazin-5-yl)oxy)methyl)-N-isopropyl-2-oxopiperidine-3-carboxamide]: the “sweetness perceived by panelists relative to 8.5% glucose” value under setting [1] is reported as “significantly sweeter”. Further, the “Total (sample selected as sweeter by panelists)” value under setting [2] is 23.
With `NC1=NS(=O)(=O)Nc2cccc(OCC3(C(=O)NC4CCCCC4)CCCNC3=O)c21` (stereo not shown) [Compound 3, 3-(((4-amino-2,2-dioxido-1H-benzo[c][1,2,6]thiadiazin-5-yl)oxy)methyl)-N-cyclohexyl-2-oxopiperidine-3-carboxamide], the “glucose concentration perceived” value is recorded as 9 % glucose. Further, the “sweetness perceived by panelists relative to 8.5% glucose” value under setting [1] is listed as “significantly sweeter”. For the same molecule, the “Total (sample selected as sweeter by panelists)” value under setting [2] was found to be 21. Further, the “Total (sample selected as sweeter by panelists)” value (7% glucose + 8 ppm compound vs 9% glucose, 12 panelists × 2 reps) was found to be 14.
Take `CCCNC(=O)C(C)(C)COc1cccc2c1C(N)=NS(=O)(=O)N2` [FEMA 4701, reference compound]: the “glucose concentration perceived” value came to 8 % glucose and the “glucose enhancement effects (overall statement)” value is given as “only showed marginal glucose enhancement effects”. Besides, the “Total (sample selected as sweeter by panelists)” value (7% glucose + 8 ppm compound vs 8% glucose, 12 panelists × 2 reps) was determined as 13. The “sweetness perceived by panelists relative to 8.5% glucose” value under setting [1] is reported as “significantly less sweet”. Further, under setting [2], the “Total (sample selected as sweeter by panelists)” value is 21.
For the molecule `Cc1nc2cccc(OCC(C)(C)C(=O)NC(C)C)c2c(N)c1C(=O)O` [FEMA 4774, reference compound], the “glucose enhancement effects (overall statement)” value was “did not show significant glucose enhancement effects”. Besides, under “7% glucose + 8 ppm compound vs 7% glucose”, the “sweetness perceived by panelists relative to 7% glucose” value is on record as “only being directionally sweeter”. Also, the “Total (sample selected as sweeter by panelists)” value (7% glucose + 8 ppm compound vs 7% glucose, 12 panelists × 2 reps) is reported as 17.
